This test concerns the target T1, Tyrosine-protein phosphatase non-receptor type 1 (Homo sapiens, UniProt P18031).
T1 sequence (P18031 whole entry): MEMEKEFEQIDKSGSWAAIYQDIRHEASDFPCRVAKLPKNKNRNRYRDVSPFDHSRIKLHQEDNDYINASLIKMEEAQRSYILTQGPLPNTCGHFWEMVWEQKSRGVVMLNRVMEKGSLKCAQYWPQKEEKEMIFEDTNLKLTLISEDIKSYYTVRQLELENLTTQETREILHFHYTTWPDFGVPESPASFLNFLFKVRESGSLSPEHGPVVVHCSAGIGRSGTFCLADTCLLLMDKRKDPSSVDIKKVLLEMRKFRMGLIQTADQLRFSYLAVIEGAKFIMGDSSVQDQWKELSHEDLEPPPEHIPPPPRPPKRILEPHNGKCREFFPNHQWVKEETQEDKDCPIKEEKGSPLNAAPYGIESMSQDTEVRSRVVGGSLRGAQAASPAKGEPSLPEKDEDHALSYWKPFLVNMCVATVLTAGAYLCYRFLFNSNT
Briefly: Inhibition of PTP1B (1 to 298 residues) (unknown origin) using p-nitrophenylphosphate as substrate after 30 mins.

Each structure is given as a SMILES string. pIC50: −log10 of the molar value.

In general, pIC50 refers to −log10 of the IC50, conventionally taken in molar units. Higher therefore signals a small IC50. `CCCCCc1c(Oc2cc(OC)cc3c2C(=O)OC3(O)CCCC)c(O)cc(O)c1C(=O)O` (stereo not given) had a pIC50 of 6.05.

The molecule `CCCCCc1cc(O)cc(O)c1Oc1cc(OC)cc2c1C(=O)OC2(O)CCCC` (stereo not given) [SAKISACAULON A] showed a pIC50 of 5.77.

The molecule `CCC/C=C1\OC(=O)c2c(Oc3c(O)cc(O)c(C(=O)O)c3CCCCC)cc(OC)cc21` had a pIC50 of 6.30. This pIC50 lies 0.53 log units higher than the previous one.

For `CCCCCc1c2c(cc(O)c1C(=O)O)OC(=O)c1c(cc(OC)cc1C(=O)CCCC)O2` [LOBARIC ACID], the pIC50 is 6.10. This pIC50 is 0.20 log units lower than that of the molecule before.

As to `CCCCCc1c(Oc2cc(OC)cc3c2C(=O)OC3(CCCC)OC)c(O)cc(O)c1C(=O)O` (stereo not given), the pIC50 is 5.82.
